Legend:
Assay in all cases: relative viability (nuclei count vs DMSO), 5 days (fraction); higher = more cells survive
[1] = test system: 201T
Method in brief: (§1)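 Lung cancer cell lines were seeded in 1536-well plates and dosed by pin tool the next day, with either a single drug or a fixed anchor-drug dose combined with five library-drug doses (not always all listed) spaced in √10 steps. Five days later, one step fixed the cells and stained their nuclei (final 0.05% Triton X-100, 1% formaldehyde, 1 ug/ml Hoechst), and nuclei were counted on 4× images. Relative viability is the nuclei count in treated wells divided by the count in vehicle wells, and each value is the median of duplicate plates.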

[2] = test system: BEN
Method in brief: as §1

[3] = test system: HCC-44
Method in brief: as §1

[4] = test system: HCC-827
Method in brief: as §1

[5] = test system: HOP-62
Method in brief: as §1

[6] = test system: LCLC-103H
Method in brief: as §1

[7] = test system: LCLC-97TM1
Method in brief: as §1

[8] = test system: LXF-289
Method in brief: as §1

[9] = test system: NCI-H1395
Method in brief: as §1

[10] = test system: NCI-H1437
Method in brief: as §1

[11] = test system: NCI-H1650
Method in brief: as §1

[12] = test system: NCI-H1793
Method in brief: as §1

[13] = test system: NCI-H1944
Method in brief: as §1

[14] = test system: NCI-H2087
Method in brief: as §1

[15] = test system: NCI-H2405
Method in brief: as §1

[16] = test system: NCI-H3122
Method in brief: as §1

[17] = test system: NCI-H322M
Method in brief: as §1

[18] = test system: NCI-H647
Method in brief: as §1

[19] = test system: NCI-H727
Method in brief: as §1

[20] = test system: RERF-LC-KJ
Method in brief: as §1

[21] = test system: SK-LU-1
Method in brief: as §1

## O=C(O)c1ccc(-c2c[nH]c3ncc(-c4ccccc4)cc23)cc1C1CCCC1 + Nc1ncn([C@H]2C[C@H](O)[C@@H](CO)O2)c(=O)n1 [Decitabine] (partner 2 µM)
[1]; first compound 0.04 µM
  relative viability: 0.862
[1]; first compound 0.1265 µM
  relative viability: 0.808
[1]; first compound 0.4 µM
  relative viability: 0.805
[1]; first compound 1.265 µM
  relative viability: 0.811
[2]; first compound 0.04 µM
  relative viability: 0.621
[2]; first compound 0.1265 µM
  relative viability: 0.901
[2]; first compound 0.4 µM
  relative viability: 0.692
[2]; first compound 1.265 µM
  relative viability: 0.585
[3]; first compound 0.04 µM
  relative viability: 0.973
[3]; first compound 0.1265 µM
  relative viability: 0.95
[3]; first compound 0.4 µM
  relative viability: 0.962
[3]; first compound 1.265 µM
  relative viability: 0.864
[4]; first compound 0.04 µM
  relative viability: 0.263
[4]; first compound 0.1265 µM
  relative viability: 0.316
[4]; first compound 0.4 µM
  relative viability: 0.273
[4]; first compound 1.265 µM
  relative viability: 0.337
[5]; first compound 0.04 µM
  relative viability: 0.166
[5]; first compound 0.1265 µM
  relative viability: 0.241
[5]; first compound 0.4 µM
  relative viability: 0.203
[5]; first compound 1.265 µM
  relative viability: 0.239
[6]; first compound 0.04 µM
  relative viability: 0.767
[6]; first compound 0.1265 µM
  relative viability: 0.789
[6]; first compound 0.4 µM
  relative viability: 0.746
[6]; first compound 1.265 µM
  relative viability: 0.667
[7]; first compound 0.04 µM
  relative viability: 0.254
[7]; first compound 0.1265 µM
  relative viability: 0.226
[7]; first compound 0.4 µM
  relative viability: 0.207
[7]; first compound 1.265 µM
  relative viability: 0.195
[8]; first compound 0.04 µM
  relative viability: 0.352
[8]; first compound 0.1265 µM
  relative viability: 0.355
[8]; first compound 0.4 µM
  relative viability: 0.361
[8]; first compound 1.265 µM
  relative viability: 0.302
[9]; first compound 0.04 µM
  relative viability: 0.727
[9]; first compound 0.1265 µM
  relative viability: 0.697
[9]; first compound 0.4 µM
  relative viability: 0.731
[9]; first compound 1.265 µM
  relative viability: 0.728
[10]; first compound 0.04 µM
  relative viability: 0.533
[10]; first compound 0.1265 µM
  relative viability: 0.572
[10]; first compound 0.4 µM
  relative viability: 0.517
[10]; first compound 1.265 µM
  relative viability: 0.336
[11]; first compound 0.04 µM
  relative viability: 0.409
[11]; first compound 0.1265 µM
  relative viability: 0.345
[11]; first compound 0.4 µM
  relative viability: 0.404
[11]; first compound 1.265 µM
  relative viability: 0.263
[12]; first compound 0.04 µM
  relative viability: 0.434
[12]; first compound 0.1265 µM
  relative viability: 0.527
[12]; first compound 0.4 µM
  relative viability: 0.519
[12]; first compound 1.265 µM
  relative viability: 0.334
[13]; first compound 0.04 µM
  relative viability: 0.448
[13]; first compound 0.1265 µM
  relative viability: 0.437
[13]; first compound 0.4 µM
  relative viability: 0.423
[13]; first compound 1.265 µM
  relative viability: 0.402
[14]; first compound 0.04 µM
  relative viability: 0.263
[14]; first compound 0.1265 µM
  relative viability: 0.273
[14]; first compound 0.4 µM
  relative viability: 0.351
[14]; first compound 1.265 µM
  relative viability: 0.364
[15]; first compound 0.04 µM
  relative viability: 0.71
[15]; first compound 0.1265 µM
  relative viability: 0.762
[15]; first compound 0.4 µM
  relative viability: 0.676
[15]; first compound 1.265 µM
  relative viability: 0.515
[16]; first compound 0.04 µM
  relative viability: 0.423
[16]; first compound 0.1265 µM
  relative viability: 0.431
[16]; first compound 0.4 µM
  relative viability: 0.471
[16]; first compound 1.265 µM
  relative viability: 0.428
[17]; first compound 0.04 µM
  relative viability: 0.772
[17]; first compound 0.1265 µM
  relative viability: 0.704
[17]; first compound 0.4 µM
  relative viability: 0.723
[17]; first compound 1.265 µM
  relative viability: 0.66
[18]; first compound 0.04 µM
  relative viability: 0.535
[18]; first compound 0.1265 µM
  relative viability: 0.409
[18]; first compound 0.4 µM
  relative viability: 0.388
[18]; first compound 1.265 µM
  relative viability: 0.283
[19]; first compound 0.04 µM
  relative viability: 0.77
[19]; first compound 0.1265 µM
  relative viability: 0.848
[19]; first compound 0.4 µM
  relative viability: 0.818
[19]; first compound 1.265 µM
  relative viability: 0.788
[20]; first compound 0.04 µM
  relative viability: 0.718
[20]; first compound 0.1265 µM
  relative viability: 0.718
[20]; first compound 0.4 µM
  relative viability: 0.596
[20]; first compound 1.265 µM
  relative viability: 0.468
[21]; first compound 0.04 µM
  relative viability: 0.633
[21]; first compound 0.1265 µM
  relative viability: 0.587
[21]; first compound 0.4 µM
  relative viability: 0.592
[21]; first compound 1.265 µM
  relative viability: 0.508
